According to ChEMBL document CHEMBL1201862, “PubChem BioAssay data set” (2004):
Active and inactive are the calls of the source.

Columns and labels:
[1] = biological target: Serine/threonine-protein phosphatase PP1-alpha catalytic subunit (Homo sapiens, UniProt P62136); test: PP1 phosphatase inhibitors, dose response, biochemical, fluorescence (AID 2394)
[2] = biological target: Serine/threonine-protein phosphatase (Homo sapiens, UniProt Q9BPW0); test: PP5 phosphatase inhibitors, dose response, biochemical, fluorescence (AID 2395)
[3] = biological target: Glucose-6-phosphate 1-dehydrogenase (Homo sapiens, UniProt P11413); test: human G6PD enzyme inhibitors, dose response, selectivity assay for P. falciparum G6PD inhibitor project, biochemical, fluorescence (AID 504792); type: functional
Glucose-6-phosphate 1-dehydrogenase, sequence (P11413 whole entry): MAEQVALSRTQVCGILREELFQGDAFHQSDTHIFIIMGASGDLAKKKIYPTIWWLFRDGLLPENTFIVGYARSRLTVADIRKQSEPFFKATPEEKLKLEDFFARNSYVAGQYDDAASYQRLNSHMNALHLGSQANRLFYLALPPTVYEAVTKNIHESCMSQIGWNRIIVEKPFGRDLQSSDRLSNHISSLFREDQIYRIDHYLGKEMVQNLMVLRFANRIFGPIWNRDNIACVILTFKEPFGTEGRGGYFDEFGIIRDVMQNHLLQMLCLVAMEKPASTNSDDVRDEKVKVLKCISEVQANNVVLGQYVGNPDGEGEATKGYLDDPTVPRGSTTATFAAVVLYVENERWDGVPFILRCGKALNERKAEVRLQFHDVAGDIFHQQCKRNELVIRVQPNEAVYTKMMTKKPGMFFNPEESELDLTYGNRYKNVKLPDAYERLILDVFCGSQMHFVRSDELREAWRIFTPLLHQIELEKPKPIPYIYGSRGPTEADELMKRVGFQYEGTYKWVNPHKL

[4] = biological target: T1, Apoptotic protease-activating factor 1 (Homo sapiens, UniProt O14727); type: functional
T1 sequence (O14727 whole entry): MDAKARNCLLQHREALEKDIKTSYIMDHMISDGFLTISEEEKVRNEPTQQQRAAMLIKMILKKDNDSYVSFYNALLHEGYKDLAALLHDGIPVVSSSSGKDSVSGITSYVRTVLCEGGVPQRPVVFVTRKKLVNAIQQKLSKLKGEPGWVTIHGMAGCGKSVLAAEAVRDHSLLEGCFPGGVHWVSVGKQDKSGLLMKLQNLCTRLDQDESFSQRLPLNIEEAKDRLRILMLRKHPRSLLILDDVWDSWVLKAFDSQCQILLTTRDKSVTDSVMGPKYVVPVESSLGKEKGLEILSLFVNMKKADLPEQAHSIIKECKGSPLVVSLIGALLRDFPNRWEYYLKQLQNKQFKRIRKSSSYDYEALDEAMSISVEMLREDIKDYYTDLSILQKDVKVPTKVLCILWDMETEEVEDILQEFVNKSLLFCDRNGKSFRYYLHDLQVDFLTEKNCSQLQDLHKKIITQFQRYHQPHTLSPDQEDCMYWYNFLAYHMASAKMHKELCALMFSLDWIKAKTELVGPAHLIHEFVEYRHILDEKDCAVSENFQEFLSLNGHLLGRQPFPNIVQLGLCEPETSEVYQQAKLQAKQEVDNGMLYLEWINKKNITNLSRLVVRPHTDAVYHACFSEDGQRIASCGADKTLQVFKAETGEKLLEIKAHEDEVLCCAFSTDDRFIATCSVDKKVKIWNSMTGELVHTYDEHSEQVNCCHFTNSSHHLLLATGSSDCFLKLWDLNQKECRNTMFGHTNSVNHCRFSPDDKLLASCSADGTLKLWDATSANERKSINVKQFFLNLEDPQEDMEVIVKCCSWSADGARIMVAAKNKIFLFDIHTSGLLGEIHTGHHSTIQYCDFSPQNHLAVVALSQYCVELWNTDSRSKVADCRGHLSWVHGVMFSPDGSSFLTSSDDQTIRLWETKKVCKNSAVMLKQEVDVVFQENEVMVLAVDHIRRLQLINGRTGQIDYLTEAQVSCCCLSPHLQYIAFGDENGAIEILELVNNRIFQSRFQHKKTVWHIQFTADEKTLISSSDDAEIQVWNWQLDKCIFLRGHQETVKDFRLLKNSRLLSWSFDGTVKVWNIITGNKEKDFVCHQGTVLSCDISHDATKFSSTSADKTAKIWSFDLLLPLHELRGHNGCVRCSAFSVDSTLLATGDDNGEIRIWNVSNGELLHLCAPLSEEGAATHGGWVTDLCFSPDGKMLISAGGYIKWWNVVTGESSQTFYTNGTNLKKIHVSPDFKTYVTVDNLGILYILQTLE

Genome polyprotein = Genome polyprotein (dengue virus type 2, UniProt P29990); test: Dengue-2 NS5 methyltransferase inhibitors, primary screen, biochemical, confirmation dose response (AID 588689); type: functional
Genome polyprotein, sequence (P29990 2492-3391 limits assumed): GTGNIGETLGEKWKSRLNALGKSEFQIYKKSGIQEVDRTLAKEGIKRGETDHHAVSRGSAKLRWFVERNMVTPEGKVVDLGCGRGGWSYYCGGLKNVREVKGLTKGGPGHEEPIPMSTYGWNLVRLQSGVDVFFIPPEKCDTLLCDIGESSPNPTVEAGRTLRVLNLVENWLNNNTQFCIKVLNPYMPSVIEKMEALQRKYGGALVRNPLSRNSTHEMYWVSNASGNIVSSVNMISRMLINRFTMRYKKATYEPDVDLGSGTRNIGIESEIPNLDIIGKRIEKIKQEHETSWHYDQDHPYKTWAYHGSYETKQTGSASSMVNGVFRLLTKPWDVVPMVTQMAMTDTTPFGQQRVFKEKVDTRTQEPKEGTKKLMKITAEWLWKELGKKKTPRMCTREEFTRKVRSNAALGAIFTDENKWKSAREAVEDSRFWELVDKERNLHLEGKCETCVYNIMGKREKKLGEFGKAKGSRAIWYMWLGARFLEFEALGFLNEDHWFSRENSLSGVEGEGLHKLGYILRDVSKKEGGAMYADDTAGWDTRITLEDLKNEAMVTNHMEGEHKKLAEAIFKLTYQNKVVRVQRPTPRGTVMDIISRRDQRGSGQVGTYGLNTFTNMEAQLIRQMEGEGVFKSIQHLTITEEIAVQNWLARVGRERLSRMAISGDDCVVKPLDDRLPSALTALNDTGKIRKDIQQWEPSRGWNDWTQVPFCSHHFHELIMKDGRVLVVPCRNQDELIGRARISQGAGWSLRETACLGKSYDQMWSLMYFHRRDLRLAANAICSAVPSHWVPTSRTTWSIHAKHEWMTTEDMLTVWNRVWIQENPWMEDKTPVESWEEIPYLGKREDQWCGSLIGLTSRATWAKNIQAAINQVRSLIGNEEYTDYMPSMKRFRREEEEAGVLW

[5] = Luminescence Cell-Based Dose Response to Identify Activators of 5'UTR Stem-Loop Driven Prion Protein mRNA Translation in H4-C Neuroglioblastoma Cells. [Related pubchem assays: 1829 (Project Summary), 1814 (Primary HTS)]; type: functional
[6] = Luminescence Cell-Based Dose Response HTS to Identify Activators of Luciferase Translation or Activity in H4 […] Cells. [Related pubchem assays: 1829 (Project Summary), 1814 (Primary HTS)]; type: functional
H4 = test: Luminescence Cell-Based Dose Response HTS to Identify Activators of 5'UTR Stem-Loop Driven Prion Protein mRNA Translation in H4 Neuroglioblastoma Cells. [Related pubchem assays: 1829 (Project Summary), 1814 (Primary HTS)]; type: functional; conditions: Homo sapiens
[7] = Luminescence Cell-Based Dose Response to Identify Activators of Luciferase Translation or Activity in H4-C Neuroglioblastoma Cells. [Related pubchem assays: 1829 (Project Summary), 1814 (Primary HTS)]; type: functional
Estrogen receptor = biological target: T2, Estrogen receptor (Homo sapiens, UniProt P03372);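 further: potency for inhibiting coactivator peptide recruitment to the receptor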
T2 sequence (P03372 whole entry): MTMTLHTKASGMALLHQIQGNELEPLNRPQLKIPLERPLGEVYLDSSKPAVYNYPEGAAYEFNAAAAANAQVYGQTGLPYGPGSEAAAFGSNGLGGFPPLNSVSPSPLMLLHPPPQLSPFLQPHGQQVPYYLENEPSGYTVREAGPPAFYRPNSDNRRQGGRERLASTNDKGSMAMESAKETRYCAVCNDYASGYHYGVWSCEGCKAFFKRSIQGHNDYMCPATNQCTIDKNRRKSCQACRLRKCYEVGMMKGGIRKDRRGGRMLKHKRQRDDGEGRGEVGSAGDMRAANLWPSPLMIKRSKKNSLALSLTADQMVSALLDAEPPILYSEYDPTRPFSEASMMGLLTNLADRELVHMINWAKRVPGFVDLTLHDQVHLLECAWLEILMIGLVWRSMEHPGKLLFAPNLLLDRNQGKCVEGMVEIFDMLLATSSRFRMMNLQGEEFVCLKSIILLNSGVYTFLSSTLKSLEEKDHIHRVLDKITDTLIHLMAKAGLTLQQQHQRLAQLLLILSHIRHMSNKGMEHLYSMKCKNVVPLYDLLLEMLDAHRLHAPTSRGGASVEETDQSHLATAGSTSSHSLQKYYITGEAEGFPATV

[8] = Luminescence Cell-Based Dose Confirmation to Identify Activators of 5'UTR Stem-Loop Driven Alpha-Synuclein mRNA Translation in H4 Neuroglioblastoma Cells. [Related pubchem assays: 1829 (Project Summary), 1814 (Primary HTS)]; type: functional
[9] = Luminescence Cell-Based Dose Retest to Confirm Inhibitors of Cancer Stem Cells. [Related pubchem assays (depositor defined):AID2717, AID2721]; type: functional; conditions: Homo sapiens
Cytochrome P450 2C19 = Cytochrome P450 2C19 (Homo sapiens, UniProt P33261); test: Cytochrome panel assay with activity outcomes. Panel member name: p450-cyp2c19 Compounds with AC50 equal or less than 10 uM are considered active; type: functional; conditions: read-out: AC50
Cytochrome P450 2C19, sequence (P33261 whole entry): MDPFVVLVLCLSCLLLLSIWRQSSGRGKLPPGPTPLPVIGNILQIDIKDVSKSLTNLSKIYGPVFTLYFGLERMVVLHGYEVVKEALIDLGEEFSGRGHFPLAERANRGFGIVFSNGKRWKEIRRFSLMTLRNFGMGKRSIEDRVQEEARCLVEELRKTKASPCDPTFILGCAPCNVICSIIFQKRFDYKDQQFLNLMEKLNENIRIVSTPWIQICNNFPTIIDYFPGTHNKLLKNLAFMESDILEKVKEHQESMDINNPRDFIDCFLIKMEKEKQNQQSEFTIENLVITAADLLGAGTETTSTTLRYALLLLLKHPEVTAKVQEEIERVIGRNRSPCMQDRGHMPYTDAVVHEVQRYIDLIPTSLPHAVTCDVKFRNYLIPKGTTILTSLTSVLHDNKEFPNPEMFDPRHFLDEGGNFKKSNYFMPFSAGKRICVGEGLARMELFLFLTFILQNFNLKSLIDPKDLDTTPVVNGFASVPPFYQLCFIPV

Cytochrome P450 1A2 = biological target: T3, Cytochrome P450 1A2 (Homo sapiens, UniProt P05177);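 further: PubChem cytochrome P450 panel assay, CYP1A2 panel member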
T3 sequence (P05177 whole entry): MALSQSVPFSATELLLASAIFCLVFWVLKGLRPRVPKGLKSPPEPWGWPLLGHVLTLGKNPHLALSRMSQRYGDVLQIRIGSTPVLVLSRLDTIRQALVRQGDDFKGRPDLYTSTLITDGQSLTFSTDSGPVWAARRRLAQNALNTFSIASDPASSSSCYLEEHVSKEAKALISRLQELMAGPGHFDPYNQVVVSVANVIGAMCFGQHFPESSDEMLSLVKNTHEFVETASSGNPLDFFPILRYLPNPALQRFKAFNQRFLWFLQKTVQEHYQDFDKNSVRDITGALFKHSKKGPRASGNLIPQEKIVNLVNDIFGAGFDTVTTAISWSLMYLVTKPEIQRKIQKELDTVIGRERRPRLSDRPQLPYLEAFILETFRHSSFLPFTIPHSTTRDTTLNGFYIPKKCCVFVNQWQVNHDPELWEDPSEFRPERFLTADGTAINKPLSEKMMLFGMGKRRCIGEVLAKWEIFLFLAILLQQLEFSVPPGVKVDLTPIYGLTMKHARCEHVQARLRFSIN

Cytochrome P450 2C9 = Cytochrome P450 2C9 (Homo sapiens, UniProt P11712)
Cytochrome P450 2C9, sequence (P11712 whole entry): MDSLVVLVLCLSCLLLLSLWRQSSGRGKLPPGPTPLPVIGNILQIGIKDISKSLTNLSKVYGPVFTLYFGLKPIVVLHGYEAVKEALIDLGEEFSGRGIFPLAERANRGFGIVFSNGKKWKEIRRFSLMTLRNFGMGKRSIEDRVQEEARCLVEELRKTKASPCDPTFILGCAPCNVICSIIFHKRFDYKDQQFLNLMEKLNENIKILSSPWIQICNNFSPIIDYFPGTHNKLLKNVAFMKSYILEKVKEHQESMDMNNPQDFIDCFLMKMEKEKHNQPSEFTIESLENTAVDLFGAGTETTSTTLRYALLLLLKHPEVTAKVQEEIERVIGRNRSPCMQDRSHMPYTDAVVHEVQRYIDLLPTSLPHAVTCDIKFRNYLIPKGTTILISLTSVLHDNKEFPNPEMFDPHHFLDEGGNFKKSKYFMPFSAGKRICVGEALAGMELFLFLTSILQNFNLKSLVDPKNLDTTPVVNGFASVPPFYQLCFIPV

[10] = biological target: Voltage-gated inwardly rectifying potassium channel KCNH2 (Homo sapiens, UniProt Q12809); test: hERG protection from proarrhythmic block, potency, dose response, cell-based, thallium flux (AID 2121); type: ADME
Voltage-gated inwardly rectifying potassium channel KCNH2, sequence (Q12809 whole entry): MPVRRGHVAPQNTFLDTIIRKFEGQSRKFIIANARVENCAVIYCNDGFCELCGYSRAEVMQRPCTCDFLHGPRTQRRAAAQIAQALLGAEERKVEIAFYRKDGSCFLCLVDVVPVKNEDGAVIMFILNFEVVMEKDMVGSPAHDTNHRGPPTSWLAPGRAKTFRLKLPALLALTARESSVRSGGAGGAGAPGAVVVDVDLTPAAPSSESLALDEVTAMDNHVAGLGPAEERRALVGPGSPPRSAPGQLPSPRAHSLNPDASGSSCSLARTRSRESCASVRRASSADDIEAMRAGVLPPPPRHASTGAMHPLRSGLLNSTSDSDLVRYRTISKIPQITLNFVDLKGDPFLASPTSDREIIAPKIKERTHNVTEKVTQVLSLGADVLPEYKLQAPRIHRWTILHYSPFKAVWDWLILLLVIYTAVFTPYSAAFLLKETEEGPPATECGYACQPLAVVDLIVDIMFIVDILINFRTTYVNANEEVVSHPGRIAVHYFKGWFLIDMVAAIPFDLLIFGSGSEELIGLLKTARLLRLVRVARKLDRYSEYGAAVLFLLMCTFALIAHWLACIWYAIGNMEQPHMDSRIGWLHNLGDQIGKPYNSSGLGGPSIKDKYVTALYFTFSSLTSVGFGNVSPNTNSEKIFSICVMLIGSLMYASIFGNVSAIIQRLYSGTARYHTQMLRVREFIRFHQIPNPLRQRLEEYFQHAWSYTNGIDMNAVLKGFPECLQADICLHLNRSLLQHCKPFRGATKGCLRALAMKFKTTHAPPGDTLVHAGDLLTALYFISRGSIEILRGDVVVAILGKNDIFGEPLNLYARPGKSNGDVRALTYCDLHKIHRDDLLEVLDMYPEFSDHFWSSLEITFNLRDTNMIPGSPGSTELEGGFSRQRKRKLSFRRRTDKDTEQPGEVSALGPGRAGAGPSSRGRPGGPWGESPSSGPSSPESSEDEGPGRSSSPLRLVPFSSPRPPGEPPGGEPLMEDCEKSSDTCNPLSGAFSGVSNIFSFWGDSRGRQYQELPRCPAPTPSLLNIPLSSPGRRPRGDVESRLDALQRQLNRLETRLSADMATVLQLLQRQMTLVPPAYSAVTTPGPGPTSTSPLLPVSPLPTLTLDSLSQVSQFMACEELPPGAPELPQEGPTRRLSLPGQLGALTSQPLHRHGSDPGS

[11] = biological target: T4, Replicative DNA helicase DnaB (Mycobacterium tuberculosis, UniProt P9WMR3); test: DnaB intein splicing inhibitors, dose response, biochemical, cell-free fluorescence (AID 449749); type: functional
T4 sequence (P9WMR3 whole entry): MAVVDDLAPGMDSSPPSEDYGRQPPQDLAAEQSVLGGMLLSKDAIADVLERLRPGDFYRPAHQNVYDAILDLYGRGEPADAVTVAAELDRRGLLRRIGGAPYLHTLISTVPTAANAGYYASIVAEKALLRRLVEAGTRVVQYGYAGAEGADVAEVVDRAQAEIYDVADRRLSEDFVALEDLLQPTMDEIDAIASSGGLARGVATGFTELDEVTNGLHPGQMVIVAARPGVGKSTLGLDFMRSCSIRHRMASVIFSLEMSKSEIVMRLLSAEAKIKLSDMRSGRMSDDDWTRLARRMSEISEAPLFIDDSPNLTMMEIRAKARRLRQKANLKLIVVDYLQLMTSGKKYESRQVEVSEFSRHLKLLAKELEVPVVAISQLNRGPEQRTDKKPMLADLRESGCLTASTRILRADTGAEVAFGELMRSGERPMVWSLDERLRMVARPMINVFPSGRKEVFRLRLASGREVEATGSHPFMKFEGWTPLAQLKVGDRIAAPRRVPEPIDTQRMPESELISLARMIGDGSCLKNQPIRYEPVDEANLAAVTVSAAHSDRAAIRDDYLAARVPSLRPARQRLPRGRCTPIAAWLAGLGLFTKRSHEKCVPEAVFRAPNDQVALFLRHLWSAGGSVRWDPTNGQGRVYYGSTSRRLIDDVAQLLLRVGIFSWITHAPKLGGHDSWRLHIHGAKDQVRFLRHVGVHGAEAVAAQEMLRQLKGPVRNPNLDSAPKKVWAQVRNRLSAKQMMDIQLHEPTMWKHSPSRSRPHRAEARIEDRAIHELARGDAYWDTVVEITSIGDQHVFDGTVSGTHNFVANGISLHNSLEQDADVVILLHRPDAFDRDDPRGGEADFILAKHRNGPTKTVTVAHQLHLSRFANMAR

Protein RecA = biological target: T5, Protein RecA (Mycobacterium tuberculosis, UniProt P9WHJ3); test: Fluorescence Cell-Free Homogeneous Dose Retest to Identify Inhibitors of RecA-Intein Splicing Activity. [Related pubchem assays (depositor defined):AID2097, AID2223, AID489010, AID492950]; type: functional
T5 sequence (P9WHJ3 whole entry): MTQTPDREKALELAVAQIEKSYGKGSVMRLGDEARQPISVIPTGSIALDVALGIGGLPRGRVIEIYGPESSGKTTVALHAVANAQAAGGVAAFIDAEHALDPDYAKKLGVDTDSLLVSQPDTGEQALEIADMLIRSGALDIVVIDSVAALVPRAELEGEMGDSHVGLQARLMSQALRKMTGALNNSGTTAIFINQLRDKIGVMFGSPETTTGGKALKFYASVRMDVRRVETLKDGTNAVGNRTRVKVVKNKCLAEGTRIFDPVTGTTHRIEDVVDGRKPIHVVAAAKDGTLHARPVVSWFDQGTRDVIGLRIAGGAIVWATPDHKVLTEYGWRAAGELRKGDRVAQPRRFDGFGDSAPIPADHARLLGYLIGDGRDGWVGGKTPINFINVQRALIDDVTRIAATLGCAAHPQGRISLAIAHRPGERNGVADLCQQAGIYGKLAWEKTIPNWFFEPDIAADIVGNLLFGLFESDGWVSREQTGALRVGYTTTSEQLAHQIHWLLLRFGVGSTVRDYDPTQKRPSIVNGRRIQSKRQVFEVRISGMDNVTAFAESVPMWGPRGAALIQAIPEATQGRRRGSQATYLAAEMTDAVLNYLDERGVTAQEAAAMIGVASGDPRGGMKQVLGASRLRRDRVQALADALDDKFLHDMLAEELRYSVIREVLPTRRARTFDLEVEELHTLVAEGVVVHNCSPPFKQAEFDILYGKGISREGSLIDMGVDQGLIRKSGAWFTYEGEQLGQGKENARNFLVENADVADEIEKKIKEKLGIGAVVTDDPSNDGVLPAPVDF

Cytochrome P450 2D6 = Cytochrome P450 2D6 (Homo sapiens, UniProt P10635);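 further: CYP2D6 member of a cytochrome P450 panel assay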
Cytochrome P450 2D6, sequence (P10635 whole entry): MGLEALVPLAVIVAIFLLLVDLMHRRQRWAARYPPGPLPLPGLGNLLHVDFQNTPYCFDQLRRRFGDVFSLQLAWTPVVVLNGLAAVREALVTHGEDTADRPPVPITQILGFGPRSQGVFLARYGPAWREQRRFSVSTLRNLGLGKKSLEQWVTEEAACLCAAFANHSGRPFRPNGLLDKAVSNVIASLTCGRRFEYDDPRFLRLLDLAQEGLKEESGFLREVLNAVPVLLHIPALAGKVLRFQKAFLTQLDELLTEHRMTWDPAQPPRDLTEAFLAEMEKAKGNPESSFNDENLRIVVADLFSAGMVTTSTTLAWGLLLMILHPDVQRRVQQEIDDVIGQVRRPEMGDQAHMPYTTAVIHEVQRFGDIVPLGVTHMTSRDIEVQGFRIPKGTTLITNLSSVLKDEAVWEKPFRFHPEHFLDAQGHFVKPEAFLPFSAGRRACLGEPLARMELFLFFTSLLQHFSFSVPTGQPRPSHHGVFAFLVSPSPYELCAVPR

Vero = test: host cell cytotoxicity of antiviral hits, dose response, cytotoxicity control for West Nile virus antiviral project, secondary assay (AID 1650); type: functional; conditions: Chlorocebus sabaeus
[12] = Vero cell cytotoxicity, dose response, cytotoxicity control for Vif-APOBEC3G degradation inhibitor project, Vero cells (AID 1117358); type: functional; conditions: Human immunodeficiency virus 1, Vero
[13] = biological target: Glyceraldehyde-3-phosphate dehydrogenase (Homo sapiens, UniProt P04406)
Glyceraldehyde-3-phosphate dehydrogenase, sequence (P04406 whole entry): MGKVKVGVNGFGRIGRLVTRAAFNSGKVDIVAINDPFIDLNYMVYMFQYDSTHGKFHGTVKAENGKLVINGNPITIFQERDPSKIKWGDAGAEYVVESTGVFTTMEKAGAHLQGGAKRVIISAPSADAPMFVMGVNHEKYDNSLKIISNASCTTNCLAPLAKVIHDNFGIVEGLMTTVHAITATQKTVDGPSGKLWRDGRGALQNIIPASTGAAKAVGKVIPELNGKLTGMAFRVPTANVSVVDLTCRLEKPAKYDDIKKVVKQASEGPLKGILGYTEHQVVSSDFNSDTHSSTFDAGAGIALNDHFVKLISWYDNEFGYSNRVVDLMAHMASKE

Bcl-2-related protein A1 [14] = biological target: T6, Bcl-2-related protein A1 (Mus musculus, UniProt Q07440); test: Bfl-1 inhibitors blocking BH3 peptide binding, confirmation, biochemical, TR-FRET, mouse Bfl-1 (AID 621);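 further: TR-FRET binding of GST-Bfl-1 to FITC-labelled Bid peptide via terbium antibody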
T6 sequence (Q07440 whole entry): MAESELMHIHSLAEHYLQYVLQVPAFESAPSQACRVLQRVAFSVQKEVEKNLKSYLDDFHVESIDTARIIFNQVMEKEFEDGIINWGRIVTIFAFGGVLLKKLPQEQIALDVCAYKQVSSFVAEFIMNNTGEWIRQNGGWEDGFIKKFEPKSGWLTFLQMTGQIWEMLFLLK

Bcl-2-related protein A1 [15] = biological target: T6, Bcl-2-related protein A1; test: Bfl-1 binding inhibitors, SAR follow-up, biochemical, fluorescence polarization (AID 1070)

Serine/threonine-protein phosphatase PP1-alpha catalytic subunit, sequence (P62136 whole entry): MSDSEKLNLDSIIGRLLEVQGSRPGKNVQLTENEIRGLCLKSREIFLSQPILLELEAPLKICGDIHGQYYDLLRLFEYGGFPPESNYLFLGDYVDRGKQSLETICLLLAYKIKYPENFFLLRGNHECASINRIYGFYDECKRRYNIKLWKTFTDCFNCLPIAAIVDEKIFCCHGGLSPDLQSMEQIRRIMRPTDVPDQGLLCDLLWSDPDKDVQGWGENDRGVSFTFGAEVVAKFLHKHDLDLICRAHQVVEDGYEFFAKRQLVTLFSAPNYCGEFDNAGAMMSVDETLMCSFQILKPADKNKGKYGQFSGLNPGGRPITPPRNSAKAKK

COC(=O)CCC(=O)OC1(C)C(=O)C2=CN(C3CC3)C(c3ccc(OC)cc3)=CC2=C(Br)C1=O (centres undefined)
IC50 [1]: 46.2 µM (not active)
IC50 [2]: 8.96 µM (active)
IC50 [3]: 31.1 µM (inactive)
IC50 [4]: 22 µM (active)
IC50 (Genome polyprotein): > 100 µM (active)

CCCc1cc2c(=O)c(-c3ccc4c(c3)OCCO4)coc2cc1OC(=O)c1ccco1
EC50 [5]: 0.306 µM (active)
EC50 [6]: < 0.1 µM (active)
EC50 (H4): > 120 µM (not active)
EC50 [7]: 0.376 µM (active)
IC50 (Estrogen receptor): > 50 µM (not active)
EC50 [8]: 0.388 µM (active)
AC50 [9]: 3.85 µM (active)
AC50 (Cytochrome P450 2C19): 2.51 µM (inconclusive)
AC50 (Cytochrome P450 1A2): 2 µM (inconclusive)
AC50 (Cytochrome P450 2C9): inconclusive

CN1C(=O)/C(=N\OC(=O)c2cccc3ccccc23)c2ccccc21
EC50 [10]: 1.17 µM (active)
AC50 [11]: 7.38 µM (active)
EC50 (Protein RecA): 15 µM (active)
AC50 (Cytochrome P450 2D6): 12.6 µM (inconclusive)

Cc1cc(C)n(Cc2ccc(NC(=O)c3nn(C)cc3[N+](=O)[O-])cc2)n1
CC50 (Vero): 9.3 µM (active)
CC50 [12]: 20.8 µM (active)

O=C1C(Cl)=C(N2CCOCC2)C(=O)N1c1cccc(Cl)c1Cl
IC50 [13]: > 10 µM (inconclusive)
IC50 (Bcl-2-related protein A1 [14]): 1.52 µM (active)
IC50 (Bcl-2-related protein A1 [15]): 4.05 µM (active)
